≈ marks a conversion by molar mass, not a printed value.
Assay: Antitumor activity against human NCI60 cells
Format: functional

SMILES: O=C1C=C2S[C@H]3C[C@]2(C=C1Br)C1=C(N3)C(=O)c2[nH]cc3ccnc1c23 [DISCORHABDIN Q]
- GI50: 0.5 µg/mL (≈ 1.21 µM)

From ChEMBL document CHEMBL1141832, “A new discorhabdin from two sponge genera” (1999)
